Activity calls are given as the source filed them.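 The calls were made as follows: active = dose-dependent block of Kir2.1 potassium channel current at -100 mV within the tested dose range; inactive = no dose-dependent block of that current.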
What follows are molecules tested against Inward rectifier potassium channel 2 (Mus musculus) (UniProt P35561) (assay: Kir2.1 channel inhibitors, concentration series, SAR follow-up, cell-based, IonWorks automated patch clamp, -100 mV (AID 504559)). Conditions: Kir2.1 cell line, IonWorks patch clamp current at -100 mV.
Chain of Inward rectifier potassium channel 2 (Mus musculus) (P35561 whole entry, looked up): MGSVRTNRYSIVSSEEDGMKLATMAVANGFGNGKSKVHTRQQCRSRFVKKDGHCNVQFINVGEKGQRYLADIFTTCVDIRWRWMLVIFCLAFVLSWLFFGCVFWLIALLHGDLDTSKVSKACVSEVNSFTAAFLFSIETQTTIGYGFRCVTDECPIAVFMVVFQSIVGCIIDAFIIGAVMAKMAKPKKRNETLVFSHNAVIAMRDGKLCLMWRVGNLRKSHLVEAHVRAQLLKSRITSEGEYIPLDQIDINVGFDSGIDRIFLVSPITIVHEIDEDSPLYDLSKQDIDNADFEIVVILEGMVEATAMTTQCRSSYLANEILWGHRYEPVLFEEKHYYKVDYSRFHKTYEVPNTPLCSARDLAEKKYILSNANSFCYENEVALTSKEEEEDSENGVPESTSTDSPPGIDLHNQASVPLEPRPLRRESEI
In the case of Cc1ccc(C)c(OCCCNCc2ccccc2)c1, the IC50 is reported as 20.5 µM.
In the case of C[C@@H](NS(=O)(=O)c1cccc(Br)c1)c1ccccc1, the IC50 is reported as 30.6 µM.
C[C@H](NS(=O)(=O)c1ccc(Cl)cc1)c1ccccc1 showed an IC50 of 21.6 µM.
For C[C@H](NS(=O)(=O)c1ccc(Br)cc1)c1ccccc1, the IC50 was 21.3 µM.
For CC(O)CNCCCOc1cccc(Oc2ccccc2)c1 (configuration not stated), the IC50 was 11.4 µM.
With C[C@H](NS(=O)(=O)c1cccc(Br)c1)c1ccccc1 the IC50 was 30.9 µM.

Same assay, conditions: Kir2.1 cell line, IonWorks patch clamp current at -100 mV; at 30 µM (top of the series)
In the case of C[C@@H](NS(=O)(=O)c1ccc(Cl)cc1)c1ccccc1, the “current change, negative = inhibition” value is reported as “inactive”.
Cc1noc(C)c1COC(=O)CCN1c2ccccc2Sc2ccccc21 was tested, and the “current change, negative = inhibition” value was “inactive”.
For C[C@H](NS(C)(=O)=O)c1ccccc1, the “current change, negative = inhibition” value was “inactive”.
In the case of C[C@H](NS(=O)(=O)c1ccccc1Br)c1ccccc1, the “current change, negative = inhibition” value is reported as “inactive”.
In the case of c1ccc(CNc2c3ccccc3nc3ccccc23)cc1, the “current change, negative = inhibition” value is reported as “inactive”.
With Cc1ccc(Nc2cc(C)nc3c(C)cccc23)cc1 the “current change, negative = inhibition” value was “inactive”.
In the case of C[C@@H](NS(=O)(=O)c1cc(Cl)cc(Cl)c1O)c1ccccc1, the “current change, negative = inhibition” value is reported as “inactive”.
O=C(NCC1CCCCN1)c1cc(OCC(F)(F)F)ccc1OCC(F)(F)F (configuration not stated) was tested, and the “current change, negative = inhibition” value was “inactive”.
With Cc1ccc2nc(NCc3ccccc3)[nH]c2c1 the “current change, negative = inhibition” value was “inactive”.
In the case of Cc1ccc(S(=O)(=O)N[C@H](C)c2ccccc2)cc1, the “current change, negative = inhibition” value is reported as “inactive”.
With C[C@H](NS(=O)(=O)c1ccccc1)c1ccccc1 the “current change, negative = inhibition” value was “inactive”.
With C[C@H](NS(=O)(=O)c1cc(Cl)cc(Cl)c1O)c1ccccc1 the “current change, negative = inhibition” value was “inactive”.
With C[C@@H](NS(C)(=O)=O)c1ccccc1 the “current change, negative = inhibition” value was “inactive”.
With C[C@@H](NS(=O)(=O)c1ccccc1)c1ccccc1 the “current change, negative = inhibition” value was “inactive”.
For Cc1ccc2nc(N3CCN(CCO)CC3)nc(-c3ccccc3)c2c1, the “current change, negative = inhibition” value was “inactive”.
For C[C@@H](NS(=O)(=O)c1ccccc1Br)c1ccccc1, the “current change, negative = inhibition” value was “inactive”.

— PubChem BioAssay AID504559 (Johns Hopkins Ion Channel Center, 2011)
